ChEMBL document CHEMBL5360658, “Discovery of MK-8768, a Potent and Selective mGluR2 Negative Allosteric Modulator” (ACS Med Chem Lett, 2023)
Converted amounts (≈) assume the structure as drawn. Each block holds one compound with its values, some of them ahead of it.

Assays:
[1] = Solubility of the compound at pH 7; type: physicochemical; settings: buffer, read-out: solubility
[2] = target: T1, Nuclear receptor subfamily 1 group I member 2 (Homo sapiens, UniProt O75469); test: Agonist activity at PXR (unknown origin)
T1 sequence (O75469 whole entry): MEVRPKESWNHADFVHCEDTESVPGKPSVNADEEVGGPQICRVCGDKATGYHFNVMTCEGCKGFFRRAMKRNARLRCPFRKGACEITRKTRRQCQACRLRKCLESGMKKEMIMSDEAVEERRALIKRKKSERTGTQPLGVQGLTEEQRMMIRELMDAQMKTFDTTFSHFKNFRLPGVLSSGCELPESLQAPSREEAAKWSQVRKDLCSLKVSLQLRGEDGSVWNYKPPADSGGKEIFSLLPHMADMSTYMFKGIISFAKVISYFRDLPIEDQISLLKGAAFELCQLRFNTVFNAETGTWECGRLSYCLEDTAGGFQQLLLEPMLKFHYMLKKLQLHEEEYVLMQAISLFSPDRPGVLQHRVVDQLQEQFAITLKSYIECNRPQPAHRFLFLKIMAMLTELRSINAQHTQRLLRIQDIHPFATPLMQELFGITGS

[3] = Apparent permeability in […] LLC-MDR1 cell; type: ADME, cell-based; settings: LLC-PK1
[4] = target: Voltage-gated inwardly rectifying potassium channel KCNH2 (Homo sapiens, UniProt Q12809); test: Displacement of [35S]-MK-499 from hERG expressed in HEK293 cells […]; type: toxicity, cell-based
PXR (NR1I2) = target: T2, PXR (NR1I2) (Homo sapiens, UniProt O75469); test: Agonist activity at PXR (unknown origin) assessed as maximal efficacy at 30 uM
T2 sequence (O75469 whole entry): T1 sequence (O75469 whole entry)

[5] = target: Metabotropic glutamate receptor 2 (Homo sapiens, UniProt Q14416); test: Negative allosteric modulation at human mGluR2 receptor stably expressed in DHFR null CHO cells co-expressing Galpha16 assessed as effect on intracellular calcium flux measured after 5 min by Fluo-4AM dye based FLIPR analysis; type: functional, cell-based
P-gp (ABCB1) = P-gp (ABCB1) (Rattus norvegicus, UniProt P43245); test: Substrate activity at rat P-gp […] in […] LLC-MDR1 cells assessed as efflux ratio of apparent permeability across basolateral to apical over apical to basolateral side; type: ADME, cell-based, LLC-MDR1 cell; settings: LLC-PK1
[6] = target: Metabotropic glutamate receptor 1 (Homo sapiens, UniProt Q13255); test: Negative allosteric modulation at mGluR1 receptor (unknown origin) assessed as effect on intracellular calcium flux measured after 5 min by Fluo-4AM dye based FLIPR analysis; type: functional, cell-based
[7] = target: Metabotropic glutamate receptor 4 (Homo sapiens, UniProt Q14833); test: Negative allosteric modulation at mGluR4 receptor (unknown origin) assessed as effect on intracellular calcium flux measured after 5 min by Fluo-4AM dye based FLIPR analysis; type: functional, cell-based
[8] = target: Metabotropic glutamate receptor 6 (Homo sapiens, UniProt O15303); test: Negative allosteric modulation at mGluR6 receptor (unknown origin) assessed as effect on intracellular calcium flux measured after 5 min by Fluo-4AM dye based FLIPR analysis; type: functional, cell-based
[9] = target: Metabotropic glutamate receptor 8 (Homo sapiens, UniProt O00222); test: Negative allosteric modulation at mGluR8 receptor (unknown origin) assessed as effect on intracellular calcium flux measured after 5 min by Fluo-4AM dye based FLIPR analysis; type: functional, cell-based
[10] = Mutagenicity in Salmonella typhimurium in presence of S9 fraction by Ames test; type: toxicity, subcellular; settings: salmonella enterica subsp. enterica serovar typhimurium
Cytochrome P450 1A2 = target: T3, Cytochrome P450 1A2 (Homo sapiens, UniProt P05177); test: […] of CYP1A2 (unknown origin); type: ADME
T3 sequence (P05177 whole entry): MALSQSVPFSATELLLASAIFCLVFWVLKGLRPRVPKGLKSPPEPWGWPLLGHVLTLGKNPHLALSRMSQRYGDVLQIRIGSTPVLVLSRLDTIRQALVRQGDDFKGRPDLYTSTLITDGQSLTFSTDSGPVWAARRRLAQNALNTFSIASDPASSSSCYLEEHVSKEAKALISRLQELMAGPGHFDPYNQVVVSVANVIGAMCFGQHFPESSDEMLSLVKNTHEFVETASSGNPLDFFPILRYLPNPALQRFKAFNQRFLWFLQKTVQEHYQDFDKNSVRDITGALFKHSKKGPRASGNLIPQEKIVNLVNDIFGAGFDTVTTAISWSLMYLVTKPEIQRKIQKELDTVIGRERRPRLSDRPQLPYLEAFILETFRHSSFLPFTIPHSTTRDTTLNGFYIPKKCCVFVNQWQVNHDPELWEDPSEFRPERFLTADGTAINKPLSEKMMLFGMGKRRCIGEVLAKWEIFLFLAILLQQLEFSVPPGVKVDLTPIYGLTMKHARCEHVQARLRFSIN

Cytochrome P450 2B6 = target: T4, Cytochrome P450 2B6 (Homo sapiens, UniProt P20813); test: […] of CYP2B6 (unknown origin); type: ADME
T4 sequence (P20813 whole entry): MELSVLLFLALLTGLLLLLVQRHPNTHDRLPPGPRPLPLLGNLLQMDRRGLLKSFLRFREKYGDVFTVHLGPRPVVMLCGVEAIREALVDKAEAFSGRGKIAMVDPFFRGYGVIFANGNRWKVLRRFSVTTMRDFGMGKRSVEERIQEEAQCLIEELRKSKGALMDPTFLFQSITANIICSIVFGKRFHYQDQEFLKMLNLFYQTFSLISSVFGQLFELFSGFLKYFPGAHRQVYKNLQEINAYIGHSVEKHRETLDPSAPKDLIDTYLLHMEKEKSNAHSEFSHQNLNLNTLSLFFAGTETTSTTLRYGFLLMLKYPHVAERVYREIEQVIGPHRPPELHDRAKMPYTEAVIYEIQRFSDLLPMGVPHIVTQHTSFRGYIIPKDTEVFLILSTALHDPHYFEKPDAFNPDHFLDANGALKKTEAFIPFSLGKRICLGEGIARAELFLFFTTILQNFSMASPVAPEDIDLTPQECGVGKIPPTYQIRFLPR

Cytochrome P450 2C8 = target: T5, Cytochrome P450 2C8 (Homo sapiens, UniProt P10632); test: […] of CYP2C8 (unknown origin); type: ADME
T5 sequence (P10632 whole entry): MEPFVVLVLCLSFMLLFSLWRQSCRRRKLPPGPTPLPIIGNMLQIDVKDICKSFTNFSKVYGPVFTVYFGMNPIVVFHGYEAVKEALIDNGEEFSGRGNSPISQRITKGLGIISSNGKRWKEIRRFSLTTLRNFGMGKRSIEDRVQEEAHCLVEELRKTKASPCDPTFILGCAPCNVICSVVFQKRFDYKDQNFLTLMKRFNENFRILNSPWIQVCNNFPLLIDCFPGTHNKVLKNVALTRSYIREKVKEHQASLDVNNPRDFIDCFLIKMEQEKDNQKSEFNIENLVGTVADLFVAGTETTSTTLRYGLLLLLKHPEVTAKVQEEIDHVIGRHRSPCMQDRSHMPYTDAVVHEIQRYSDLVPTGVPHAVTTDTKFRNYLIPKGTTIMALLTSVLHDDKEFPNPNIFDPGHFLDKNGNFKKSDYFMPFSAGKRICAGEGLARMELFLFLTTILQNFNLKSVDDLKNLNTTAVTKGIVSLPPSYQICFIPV

Cytochrome P450 2C9 = Cytochrome P450 2C9 (Homo sapiens, UniProt P11712); test: […] of CYP2C9 (unknown origin); type: ADME
Cytochrome P450 2C19 = Cytochrome P450 2C19 (Homo sapiens, UniProt P33261); test: […] of CYP2C19 (unknown origin); type: ADME
Cytochrome P450 2D6 = Cytochrome P450 2D6 (Homo sapiens, UniProt P10635); test: […] of CYP2D6 (unknown origin); type: ADME
Cytochrome P450 3A4 = Cytochrome P450 3A4 (Homo sapiens, UniProt P08684); test: […] of CYP3A4 (unknown origin); type: ADME
[11] = Solubility of the compound in SGF buffer; type: physicochemical
[12] = Solubility of the compound in FaSSIF; type: physicochemical
[13] = Solubility of the compound in FeSSIF; type: physicochemical
[14] = Fraction unbound in human plasma; type: ADME, cell-free
[15] = Fraction unbound in rat plasma; type: ADME, cell-free
[16] = Fraction unbound in dog plasma; type: ADME, cell-free, Canis lupus familiaris
[17] = Fraction unbound in monkey plasma; type: ADME, cell-free, Macaca mulatta; settings: rhesus monkey
[18] = Clearance in rat at 1 mg/kg, iv; type: ADME, organism-based; settings: in vivo
[19] = Volume of distribution in rat at 1 mg/kg, iv; type: ADME, organism-based; settings: in vivo
[20] = Effective half life in rat at 1 mg/kg, iv; type: ADME, organism-based; settings: in vivo, read-out: t1/2eff (converted)
[21] = Oral bioavailability in rat at 2 mg/kg; type: ADME, organism-based; settings: in vivo
[22] = Clearance in dog at 0.25 mg/kg, iv; type: ADME, organism-based, Canis lupus familiaris; settings: in vivo
[23] = Volume of distribution in dog at 0.25 mg/kg, iv; type: ADME, organism-based, Canis lupus familiaris; settings: in vivo
[24] = Effective half life in dog at 0.25 mg/kg, iv; type: ADME, organism-based, Canis lupus familiaris; settings: in vivo, read-out: t1/2eff (converted)
[25] = Oral bioavailability in dog at 0.5 mg/kg; type: ADME, organism-based, Canis lupus familiaris; settings: in vivo
[26] = Clearance in monkey at 0.5 mg/kg, iv; type: ADME, organism-based, Macaca mulatta; settings: rhesus monkey, in vivo
[27] = Volume of distribution in monkey at 0.5 mg/kg, iv; type: ADME, organism-based, Macaca mulatta; settings: rhesus monkey, in vivo
[28] = Effective half life in monkey at 0.5 mg/kg, iv; type: ADME, organism-based, Macaca mulatta; settings: rhesus monkey, in vivo, read-out: t1/2eff (converted)
[29] = Unbound plasma concentration in rhesus monkey at 0.01 to 1 mg/kg, IM; type: ADME, organism-based, Macaca mulatta; settings: in vivo, dose 0.01-1 mg/kg
[30] = target: Metabotropic glutamate receptor 3 (Homo sapiens, UniProt Q14832); test: Negative allosteric modulation at mGluR3 receptor (unknown origin) assessed as effect on intracellular calcium flux measured after 5 min by Fluo-4AM dye based FLIPR analysis; type: functional, cell-based
[31] = target: Sodium channel protein type 5 subunit alpha (Homo sapiens, UniProt Q14524); test: Inhibition of NaV 1.5 channel (unknown origin) by automated patch-clamp assay
[32] = target: Voltage-dependent L-type calcium channel subunit alpha-1C (Homo sapiens, UniProt Q13936); test: Inhibition of Cav1.2 (unknown origin)
[33] = Oral bioavailability in rat at 20 mg/kg; type: ADME, organism-based; settings: in vivo

Sequence of Metabotropic glutamate receptor 2 (Q14416 whole entry): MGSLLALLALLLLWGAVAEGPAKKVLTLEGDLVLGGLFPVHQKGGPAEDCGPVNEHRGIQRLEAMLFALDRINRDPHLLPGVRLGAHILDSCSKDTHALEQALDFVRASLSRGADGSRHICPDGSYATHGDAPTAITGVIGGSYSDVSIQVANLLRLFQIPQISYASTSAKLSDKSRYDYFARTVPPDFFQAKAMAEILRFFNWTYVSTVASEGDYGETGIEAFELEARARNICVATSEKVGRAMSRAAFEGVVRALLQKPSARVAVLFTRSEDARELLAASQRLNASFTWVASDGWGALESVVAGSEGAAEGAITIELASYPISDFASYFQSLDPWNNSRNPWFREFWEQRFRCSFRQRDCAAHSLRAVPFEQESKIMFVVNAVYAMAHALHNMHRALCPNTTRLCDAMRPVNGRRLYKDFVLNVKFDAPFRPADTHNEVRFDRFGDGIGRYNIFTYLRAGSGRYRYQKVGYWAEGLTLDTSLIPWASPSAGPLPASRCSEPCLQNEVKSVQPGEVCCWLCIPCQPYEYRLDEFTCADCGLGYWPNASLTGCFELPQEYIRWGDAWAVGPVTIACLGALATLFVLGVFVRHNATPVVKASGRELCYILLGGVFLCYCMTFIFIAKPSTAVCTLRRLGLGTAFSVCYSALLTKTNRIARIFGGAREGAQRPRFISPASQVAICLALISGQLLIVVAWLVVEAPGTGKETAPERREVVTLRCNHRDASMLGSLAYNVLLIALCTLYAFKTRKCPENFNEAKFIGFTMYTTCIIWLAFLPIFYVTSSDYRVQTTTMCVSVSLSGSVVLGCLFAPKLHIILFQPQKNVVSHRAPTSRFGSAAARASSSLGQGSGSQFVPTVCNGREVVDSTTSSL
Sequence of Voltage-gated inwardly rectifying potassium channel KCNH2 (Q12809 whole entry): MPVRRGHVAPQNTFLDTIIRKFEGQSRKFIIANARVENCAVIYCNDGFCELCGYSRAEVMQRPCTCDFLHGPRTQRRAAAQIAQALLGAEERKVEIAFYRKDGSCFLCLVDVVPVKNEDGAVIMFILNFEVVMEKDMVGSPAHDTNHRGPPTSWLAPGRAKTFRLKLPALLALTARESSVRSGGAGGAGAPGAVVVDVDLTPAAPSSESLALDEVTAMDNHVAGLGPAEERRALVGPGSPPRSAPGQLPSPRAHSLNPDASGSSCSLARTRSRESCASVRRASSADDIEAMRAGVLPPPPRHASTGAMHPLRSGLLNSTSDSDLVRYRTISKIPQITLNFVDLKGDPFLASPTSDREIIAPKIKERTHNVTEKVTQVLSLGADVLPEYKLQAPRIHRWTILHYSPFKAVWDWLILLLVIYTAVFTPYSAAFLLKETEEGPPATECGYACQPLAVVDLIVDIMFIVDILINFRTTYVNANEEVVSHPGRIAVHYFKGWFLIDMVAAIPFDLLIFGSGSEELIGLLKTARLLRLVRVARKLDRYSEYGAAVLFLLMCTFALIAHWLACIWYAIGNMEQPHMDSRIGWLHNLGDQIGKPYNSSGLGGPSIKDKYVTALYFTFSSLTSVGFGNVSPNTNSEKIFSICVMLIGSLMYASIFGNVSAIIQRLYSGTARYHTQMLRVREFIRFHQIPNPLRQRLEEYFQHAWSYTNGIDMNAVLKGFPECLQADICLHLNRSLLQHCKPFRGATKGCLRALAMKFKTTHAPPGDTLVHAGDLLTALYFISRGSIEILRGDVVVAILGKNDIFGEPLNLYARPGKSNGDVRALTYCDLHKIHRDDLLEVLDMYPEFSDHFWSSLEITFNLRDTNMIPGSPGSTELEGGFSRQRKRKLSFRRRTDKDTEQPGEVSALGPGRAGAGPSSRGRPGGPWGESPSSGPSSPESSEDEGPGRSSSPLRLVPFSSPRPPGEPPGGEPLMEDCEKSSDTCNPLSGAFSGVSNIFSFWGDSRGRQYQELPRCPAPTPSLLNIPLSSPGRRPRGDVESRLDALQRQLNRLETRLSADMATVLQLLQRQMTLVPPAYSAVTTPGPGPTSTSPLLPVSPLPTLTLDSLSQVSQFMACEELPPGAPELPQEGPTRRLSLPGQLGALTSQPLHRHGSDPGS
Sequence of P-gp (ABCB1) (P43245 whole entry): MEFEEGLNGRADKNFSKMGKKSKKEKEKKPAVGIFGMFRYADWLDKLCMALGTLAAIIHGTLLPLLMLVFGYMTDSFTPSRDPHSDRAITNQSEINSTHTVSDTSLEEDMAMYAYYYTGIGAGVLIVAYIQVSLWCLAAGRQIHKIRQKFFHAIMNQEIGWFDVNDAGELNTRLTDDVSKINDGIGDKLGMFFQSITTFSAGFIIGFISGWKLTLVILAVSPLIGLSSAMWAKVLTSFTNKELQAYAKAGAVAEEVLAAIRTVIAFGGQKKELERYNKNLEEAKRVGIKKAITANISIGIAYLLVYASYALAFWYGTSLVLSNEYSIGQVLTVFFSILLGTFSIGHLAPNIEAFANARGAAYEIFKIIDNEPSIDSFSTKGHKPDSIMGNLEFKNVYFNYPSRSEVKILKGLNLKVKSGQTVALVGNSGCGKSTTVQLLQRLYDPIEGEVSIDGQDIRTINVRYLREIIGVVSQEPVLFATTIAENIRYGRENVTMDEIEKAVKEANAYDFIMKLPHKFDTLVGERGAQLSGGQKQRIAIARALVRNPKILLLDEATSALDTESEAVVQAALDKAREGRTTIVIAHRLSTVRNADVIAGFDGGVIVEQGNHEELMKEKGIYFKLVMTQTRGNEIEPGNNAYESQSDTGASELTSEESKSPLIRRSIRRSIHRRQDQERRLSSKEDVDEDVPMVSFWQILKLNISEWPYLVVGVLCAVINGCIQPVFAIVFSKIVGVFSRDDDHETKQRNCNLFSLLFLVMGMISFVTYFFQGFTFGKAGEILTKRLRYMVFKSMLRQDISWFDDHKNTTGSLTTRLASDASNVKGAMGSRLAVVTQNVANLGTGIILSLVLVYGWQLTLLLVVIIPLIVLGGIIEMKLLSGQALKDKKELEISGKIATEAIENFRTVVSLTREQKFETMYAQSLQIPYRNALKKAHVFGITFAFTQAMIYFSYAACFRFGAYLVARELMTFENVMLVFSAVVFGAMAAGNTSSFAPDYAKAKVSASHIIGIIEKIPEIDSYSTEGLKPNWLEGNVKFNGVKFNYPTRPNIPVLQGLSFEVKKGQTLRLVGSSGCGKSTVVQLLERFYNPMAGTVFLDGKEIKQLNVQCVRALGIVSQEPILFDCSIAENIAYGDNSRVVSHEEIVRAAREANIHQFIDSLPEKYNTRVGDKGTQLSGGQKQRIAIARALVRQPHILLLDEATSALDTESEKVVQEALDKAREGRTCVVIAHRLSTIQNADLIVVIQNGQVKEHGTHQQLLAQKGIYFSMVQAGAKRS
Sequence of Metabotropic glutamate receptor 1 (Q13255 whole entry): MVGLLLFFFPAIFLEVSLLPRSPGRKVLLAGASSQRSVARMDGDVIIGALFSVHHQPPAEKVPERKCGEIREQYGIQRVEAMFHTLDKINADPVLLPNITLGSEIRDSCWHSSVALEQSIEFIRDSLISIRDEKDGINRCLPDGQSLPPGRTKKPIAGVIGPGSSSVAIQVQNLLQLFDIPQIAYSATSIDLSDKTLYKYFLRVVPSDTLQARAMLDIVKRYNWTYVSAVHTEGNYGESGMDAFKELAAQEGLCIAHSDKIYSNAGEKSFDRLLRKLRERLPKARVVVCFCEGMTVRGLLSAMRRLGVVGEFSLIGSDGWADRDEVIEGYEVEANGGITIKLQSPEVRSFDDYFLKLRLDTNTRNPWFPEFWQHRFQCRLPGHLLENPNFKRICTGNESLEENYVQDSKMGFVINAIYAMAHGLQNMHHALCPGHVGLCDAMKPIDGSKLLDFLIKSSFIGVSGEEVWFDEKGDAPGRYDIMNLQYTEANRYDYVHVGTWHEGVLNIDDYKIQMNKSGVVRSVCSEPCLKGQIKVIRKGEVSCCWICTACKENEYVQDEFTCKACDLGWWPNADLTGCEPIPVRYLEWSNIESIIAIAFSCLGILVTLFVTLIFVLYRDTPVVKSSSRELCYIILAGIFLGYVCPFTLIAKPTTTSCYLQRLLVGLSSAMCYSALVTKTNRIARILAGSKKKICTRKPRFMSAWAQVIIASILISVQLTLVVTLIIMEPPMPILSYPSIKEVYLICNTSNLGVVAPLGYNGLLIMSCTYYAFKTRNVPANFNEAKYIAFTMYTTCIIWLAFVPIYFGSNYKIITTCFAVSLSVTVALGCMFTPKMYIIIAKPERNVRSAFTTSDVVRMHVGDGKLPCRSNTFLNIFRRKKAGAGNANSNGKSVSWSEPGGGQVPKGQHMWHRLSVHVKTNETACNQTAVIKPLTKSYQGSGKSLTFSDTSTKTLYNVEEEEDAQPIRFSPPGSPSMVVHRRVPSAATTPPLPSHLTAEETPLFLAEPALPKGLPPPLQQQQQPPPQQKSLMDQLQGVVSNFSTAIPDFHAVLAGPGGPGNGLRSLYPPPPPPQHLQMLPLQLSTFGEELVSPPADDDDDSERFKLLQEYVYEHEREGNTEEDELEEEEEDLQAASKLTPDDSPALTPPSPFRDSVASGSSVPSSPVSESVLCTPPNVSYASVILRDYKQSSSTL
Sequence of Cytochrome P450 2C19 (P33261 whole entry): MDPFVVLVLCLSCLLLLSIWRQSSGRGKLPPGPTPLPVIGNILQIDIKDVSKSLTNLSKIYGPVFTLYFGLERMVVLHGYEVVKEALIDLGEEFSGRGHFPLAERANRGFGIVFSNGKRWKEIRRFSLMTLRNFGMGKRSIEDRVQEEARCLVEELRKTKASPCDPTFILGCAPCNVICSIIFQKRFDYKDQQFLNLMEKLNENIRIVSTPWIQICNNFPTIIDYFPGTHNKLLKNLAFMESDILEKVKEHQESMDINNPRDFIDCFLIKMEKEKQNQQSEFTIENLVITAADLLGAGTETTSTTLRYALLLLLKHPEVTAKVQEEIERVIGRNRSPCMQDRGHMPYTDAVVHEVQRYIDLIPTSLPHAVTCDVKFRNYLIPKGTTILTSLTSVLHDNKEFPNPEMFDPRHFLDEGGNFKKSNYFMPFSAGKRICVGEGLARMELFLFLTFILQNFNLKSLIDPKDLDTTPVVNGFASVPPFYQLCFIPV

SMILES: NC(=O)c1cc(-c2ccc(F)cc2)c2ccc(CN3CCOC3=O)cc2n1
solubility [1]: 127 µM (≈ 46.4 µg/mL)
EC50 [2]: 9.7 µM
Papp [3]: 36 ×10⁻⁶ cm/s
IC50 [4]: 14 µM
Emax at 30 µM (PXR (NR1I2)): 95%

SMILES: Cn1cc(-c2cc(C(N)=O)nc3cc(CN4CCOC(C5CC5)C4)ccc23)cn1 (racemic)
IC50 [5]: 0.032 µM
solubility [1]: 175 µM (≈ 68.5 µg/mL)
Papp [3]: 29 ×10⁻⁶ cm/s
IC50 [4]: 51 µM

SMILES: Cn1cc(-c2cc(C(N)=O)nc3cc(CN4CCNC(C(F)(F)F)C4)ccc23)cn1 (racemic)
IC50 [5]: 0.122 µM
solubility [1]: 175 µM (≈ 73.2 µg/mL)
Papp [3]: 29 ×10⁻⁶ cm/s
IC50 [4]: > 20 µM

SMILES: Cn1cc(-c2cc(C(N)=O)nc3cc(CN4CCO[C@@H](C(F)(F)F)C4)ccc23)cn1
solubility [1]: 142 µM (≈ 59.6 µg/mL)
Papp [3]: 29 ×10⁻⁶ cm/s
IC50 [4]: > 60 µM
IC50 [30]: 7.8 µM
IC50 [31]: > 30 µM
IC50 [32]: 22 µM
bioavailability [33]: 100%

The next lines start with results.

IC50 [5]: 0.011 µM
solubility [1]: 107 µM (≈ 45.8 µg/mL)
EC50 [2]: 19 µM
efflux ratio (P-gp (ABCB1)): 18
Papp [3]: 29 ×10⁻⁶ cm/s
Emax at 30 µM (PXR (NR1I2)): 75%
SMILES: CC(c1ccc2c(-c3cnn(C)c3)cc(C(N)=O)nc2c1)c1cnn(CC(F)(F)F)c1 (racemic)
IC50 [4]: 10 µM

Papp [3]: 32 ×10⁻⁶ cm/s
IC50 [6]: > 10 µM
IC50 [7]: > 10 µM
IC50 [8]: > 10 µM
IC50 [9]: > 10 µM
IC50 (Cytochrome P450 1A2): > 26 µM
IC50 (Cytochrome P450 2B6): > 26 µM
IC50 (Cytochrome P450 2C8): > 26 µM
IC50 (Cytochrome P450 2C9): > 26 µM
IC50 (Cytochrome P450 2C19): > 26 µM
IC50 (Cytochrome P450 2D6): > 26 µM
IC50 (Cytochrome P450 3A4): > 26 µM
solubility [11]: 4100 µg/mL (≈ 9.46 mM)
solubility [12]: 440 µg/mL (≈ 1.02 mM)
solubility [13]: 2100 µg/mL (≈ 4.85 mM)
fraction unbound [14]: 0.025
fraction unbound [15]: 0.04
fraction unbound [16]: 0.045
fraction unbound [17]: 0.043
clearance [18]: 36 mL/min/kg
Vd [19]: 5.7 L/kg
half-life [20]: 1.8 h
bioavailability [21]: 32%
clearance [22]: 24 mL/min/kg
Vd [23]: 7.3 L/kg
half-life [24]: 3.3 h
bioavailability [25]: 34%
clearance [26]: 22 mL/min/kg
Vd [27]: 3.2 L/kg
half-life [28]: 1.7 h
Cp(f) [29]: 3 nM
SMILES: C[C@@H]1CN(Cc2ccc3c(-c4cnn(C)c4)cc(C(N)=O)nc3c2)C[C@H](C(F)(F)F)O1
IC50 [4]: 22 µM
Activity [10]: Non-Toxic

IC50 [5]: 0.023 µM
solubility [1]: 142 µM (≈ 55.9 µg/mL)
EC50 [2]: 29 µM
efflux ratio (P-gp (ABCB1)): 1.3
Papp [3]: 34 ×10⁻⁶ cm/s
Emax at 30 µM (PXR (NR1I2)): 51%
SMILES: CC(C)C1CN(Cc2ccc3c(-c4cnn(C)c4)cc(C(N)=O)nc3c2)CCO1 (racemic)
IC50 [4]: 23 µM
